In brackets after ≈: the same amount, converted by molar mass.
Assays:
Type in all cases: functional
[1] = test system: Pseudomonas aeruginosa; assay: Antimicrobial activity against Pseudomonas aeruginosa MTCC 741 assessed as growth inhibition after 24 hr by agar streak dilution method; details: MTCC 741, 24 h
[2] = test system: Proteus vulgaris; assay: Antimicrobial activity against Proteus vulgaris MTCC 1771 assessed as growth inhibition after 24 hr by agar streak dilution method; details: MTCC 1771, 24 h
[3] = test system: Salmonella typhi; assay: Antimicrobial activity against Salmonella enterica subsp. enterica serovar Typhi MTCC 733 assessed as growth inhibition after 24 hr by agar streak dilution method; details: MTCC 733, 24 h
[4] = test system: Escherichia coli; assay: Antimicrobial activity against Escherichia coli MTCC 739 assessed as diameter of growth inhibition zone after 24 hr
[5] = test system: Aspergillus niger; assay: Antimicrobial activity against Aspergillus niger MTCC 282 assessed as diameter of growth inhibition zone after 48 hr
[6] = test system: Bacillus cereus; assay: Antimicrobial activity against Bacillus cereus MTCC 430 assessed as growth inhibition after 24 hr by agar streak dilution method; details: MTCC 430, 24 h
[7] = test system: Klebsiella pneumoniae; assay: Antimicrobial activity against Klebsiella pneumoniae MTCC 109 assessed as growth inhibition after 24 hr by agar streak dilution method; details: MTCC 109, 24 h
[8] = test system: Klebsiella pneumoniae; assay: Antimicrobial activity against Klebsiella pneumoniae MTCC 109 assessed as diameter of growth inhibition zone after 24 hr
[9] = test system: Aspergillus clavatus; assay: Antimicrobial activity against Aspergillus clavatus MTCC 1323 assessed as diameter of growth inhibition zone after 48 hr
[10] = test system: Aspergillus fumigatus; assay: Antimicrobial activity against Aspergillus fumigatus MTCC 343 assessed as growth inhibition after 48 hr by agar streak dilution method; details: MTCC 343, 48 h
[11] = test system: Proteus vulgaris; assay: Antimicrobial activity against Proteus vulgaris MTCC 1771 assessed as diameter of growth inhibition zone after 24 hr
[12] = test system: Shigella flexneri; assay: Antimicrobial activity against Shigella flexneri MTCC1457 assessed as growth inhibition after 24 hr by agar streak dilution method; details: MTCC1457, 24 h
[13] = test system: Salmonella typhi; assay: Antimicrobial activity against Salmonella enterica subsp. enterica serovar Typhi MTCC 733 assessed as diameter of growth inhibition zone after 24 hr
[14] = test system: Staphylococcus aureus; assay: Antimicrobial activity against Staphylococcus aureus MTCC 96 assessed as growth inhibition after 24 hr by agar streak dilution method; details: MTCC 96, 24 h
[15] = test system: Mycobacterium tuberculosis; assay: Antituberculosis activity against Mycobacterium tuberculosis H37Rv assessed as growth inhibition after 12 to 28 days by L-J MIC method; details: for MIC: Mycobacterium tuberculosis, H37Rv
[16] = test system: Candida albicans; assay: Antimicrobial activity against Candida albicans MTCC 183 assessed as diameter of growth inhibition zone after 48 hr
[17] = test system: Pseudomonas aeruginosa; assay: Antimicrobial activity against Pseudomonas aeruginosa MTCC 741 assessed as diameter of growth inhibition zone after 24 hr
[18] = test system: Aspergillus niger; assay: Antimicrobial activity against Aspergillus niger MTCC 282 assessed as growth inhibition after 48 hr by agar streak dilution method; details: MTCC 282, 48 h
[19] = test system: Staphylococcus aureus; assay: Antimicrobial activity against Staphylococcus aureus MTCC 96 assessed as diameter of growth inhibition zone after 24 hr
[20] = test system: Candida albicans; assay: Antimicrobial activity against Candida albicans MTCC 183 assessed as growth inhibition after 48 hr by agar streak dilution method; details: MTCC 183, 48 h
[21] = test system: Bacillus cereus; assay: Antimicrobial activity against Bacillus cereus MTCC 430 assessed as diameter of growth inhibition zone after 24 hr
[22] = test system: Escherichia coli; assay: Antimicrobial activity against Escherichia coli MTCC 739 assessed as growth inhibition after 24 hr by agar streak dilution method; details: MTCC 739, 24 h
[23] = test system: Shigella flexneri; assay: Antimicrobial activity against Shigella flexneri MTCC1457 assessed as diameter of growth inhibition zone after 24 hr
[24] = test system: Aspergillus clavatus; assay: Antimicrobial activity against Aspergillus clavatus MTCC 1323 assessed as growth inhibition after 48 hr by agar streak dilution method; details: MTCC 1323, 48 h
[25] = test system: Aspergillus fumigatus; assay: Antimicrobial activity against Aspergillus fumigatus MTCC 343 assessed as diameter of growth inhibition zone after 48 hr

Row | Compound | MIC [1] [µg/mL] | MIC [2] [µg/mL] | MIC [3] [µg/mL] | diameter of the inhibition zone (DIZ) [4] [mm] | diameter of the inhibition zone (DIZ) [5] [mm] | MIC [6] [µg/mL] | MIC [7] [µg/mL] | diameter of the inhibition zone (DIZ) [8] [mm] | diameter of the inhibition zone (DIZ) [9] [mm] | MIC [10] [µg/mL] | diameter of the inhibition zone (DIZ) [11] [mm] | MIC [12] [µg/mL] | diameter of the inhibition zone (DIZ) [13] [mm] | MIC [14] [µg/mL] | growth inhibition (GI) [15] [%] | MIC [15] [µg/mL] | diameter of the inhibition zone (DIZ) [16] [mm] | diameter of the inhibition zone (DIZ) [17] [mm] | MIC [18] [µg/mL] | diameter of the inhibition zone (DIZ) [19] [mm] | other results
1 | N#Cc1c(-c2ccc(F)cc2)cc(-c2ccc(Nc3cc(=O)oc4ccccc34)cc2)nc1N | 3.12 (≈ 6.96 µM) | 3.12 (≈ 6.96 µM) | 6.25 (≈ 13.9 µM) | 27 | 23 | 3.12 (≈ 6.96 µM) | 3.12 (≈ 6.96 µM) | 28 | 28 | 3.12 (≈ 6.96 µM) | 29 | 12.5 (≈ 27.9 µM) | 26 | 6.25 (≈ 13.9 µM) | 97 | 50 (≈ 111 µM) | 22 | 29 | 12.5 (≈ 27.9 µM) | 25 | MIC [20]: 12.5 µg/mL (≈ 27.9 µM); diameter of the inhibition zone (DIZ) [21]: 28 mm; MIC [22]: 3.12 µg/mL (≈ 6.96 µM); diameter of the inhibition zone (DIZ) [23]: 24 mm; MIC [24]: 6.25 µg/mL (≈ 13.9 µM); diameter of the inhibition zone (DIZ) [25]: 28 mm
2 | O=C(/C=C/c1ccc(O)cc1O)c1ccc(Nc2cc(=O)oc3ccccc23)cc1 | 25 (≈ 62.6 µM) | 25 (≈ 62.6 µM) | 25 (≈ 62.6 µM) | 19 | 19 | 100 (≈ 250 µM) | 25 (≈ 62.6 µM) | 21 | 20 | 25 (≈ 62.6 µM) | 20 | 100 (≈ 250 µM) | 21 | 50 (≈ 125 µM) | 95 | 500 (≈ 1250 µM) | 16 | 19 | 50 (≈ 125 µM) | 20 | MIC [20]: 100 µg/mL (≈ 250 µM); diameter of the inhibition zone (DIZ) [21]: 16 mm; MIC [22]: 50 µg/mL (≈ 125 µM); diameter of the inhibition zone (DIZ) [23]: 17 mm; MIC [24]: 25 µg/mL (≈ 62.6 µM); diameter of the inhibition zone (DIZ) [25]: 22 mm
3 | COc1ccc(/C=C/C(=O)c2ccc(Nc3cc(=O)oc4ccccc34)cc2)cc1OC | 50 (≈ 117 µM) | 50 (≈ 117 µM) | 100 (≈ 234 µM) | 22 | 21 | 50 (≈ 117 µM) | 100 (≈ 234 µM) | 17 | 16 | 50 (≈ 117 µM) | 19 | 25 (≈ 58.5 µM) | 16 | 25 (≈ 58.5 µM) | 97 | 200 (≈ 468 µM) | 17 | 18 | 25 (≈ 58.5 µM) | 21 | MIC [20]: 100 µg/mL (≈ 234 µM); diameter of the inhibition zone (DIZ) [21]: 19 mm; MIC [22]: 25 µg/mL (≈ 58.5 µM); diameter of the inhibition zone (DIZ) [23]: 20 mm; MIC [24]: 100 µg/mL (≈ 234 µM); diameter of the inhibition zone (DIZ) [25]: 17 mm
4 | COc1ccc(C2CC(c3ccc(Nc4cc(=O)oc5ccccc45)cc3)=NN2C(C)=O)cc1 (stereo not drawn) | 50 (≈ 110 µM) | 50 (≈ 110 µM) | 100 (≈ 221 µM) | 19 | 21 | 100 (≈ 221 µM) | 100 (≈ 221 µM) | 17 | 20 | 50 (≈ 110 µM) | 20 | 100 (≈ 221 µM) | 17 | 100 (≈ 221 µM) | 99 | 100 (≈ 221 µM) | 19 | 18 | 25 (≈ 55.1 µM) | 16 | MIC [20]: 50 µg/mL (≈ 110 µM); diameter of the inhibition zone (DIZ) [21]: 15 mm; MIC [22]: 50 µg/mL (≈ 110 µM); diameter of the inhibition zone (DIZ) [23]: 16 mm; MIC [24]: 25 µg/mL (≈ 55.1 µM); diameter of the inhibition zone (DIZ) [25]: 18 mm
5 | N#Cc1c(-c2ccccc2)cc(-c2ccc(Nc3cc(=O)oc4ccccc34)cc2)nc1N | 50 (≈ 116 µM) | 25 (≈ 58.1 µM) | 12.5 (≈ 29 µM) | 19 | 21 | 50 (≈ 116 µM) | 25 (≈ 58.1 µM) | 21 | 23 | 25 (≈ 58.1 µM) | 19 | 50 (≈ 116 µM) | 23 | 50 (≈ 116 µM) | 96 | 500 (≈ 1160 µM) | 19 | 18 | 25 (≈ 58.1 µM) | 17 | MIC [20]: 25 µg/mL (≈ 58.1 µM); diameter of the inhibition zone (DIZ) [21]: 19 mm; MIC [22]: 50 µg/mL (≈ 116 µM); diameter of the inhibition zone (DIZ) [23]: 17 mm; MIC [24]: 12.5 µg/mL (≈ 29 µM); diameter of the inhibition zone (DIZ) [25]: 21 mm
6 | N#Cc1c(-c2ccc(O)cc2O)cc(-c2ccc(Nc3cc(=O)oc4ccccc34)cc2)nc1N | 6.25 (≈ 13.5 µM) | 12.5 (≈ 27 µM) | 3.12 (≈ 6.75 µM) | 24 | 22 | 6.25 (≈ 13.5 µM) | 3.12 (≈ 6.75 µM) | 30 | 27 | 6.25 (≈ 13.5 µM) | 23 | 6.25 (≈ 13.5 µM) | 28 | 12.5 (≈ 27 µM) | 97 | 100 (≈ 216 µM) | 23 | 27 | 12.5 (≈ 27 µM) | 22 | MIC [20]: 12.5 µg/mL (≈ 27 µM); diameter of the inhibition zone (DIZ) [21]: 26 mm; MIC [22]: 12.5 µg/mL (≈ 27 µM); diameter of the inhibition zone (DIZ) [23]: 26 mm; MIC [24]: 6.25 µg/mL (≈ 13.5 µM); diameter of the inhibition zone (DIZ) [25]: 25 mm
7 | Cc1ccc(-c2cc(-c3ccc(Nc4cc(=O)oc5ccccc45)cc3)nc(N)n2)cc1 | 50 (≈ 119 µM) | 25 (≈ 59.5 µM) | 50 (≈ 119 µM) | 15 | 21 | 50 (≈ 119 µM) | 100 (≈ 238 µM) | 16 | 16 | 50 (≈ 119 µM) | 21 | 25 (≈ 59.5 µM) | 18 | 50 (≈ 119 µM) | 98 | 200 (≈ 476 µM) | 16 | 19 | 25 (≈ 59.5 µM) | 18 | MIC [20]: 50 µg/mL (≈ 119 µM); diameter of the inhibition zone (DIZ) [21]: 19 mm; MIC [22]: 100 µg/mL (≈ 238 µM); diameter of the inhibition zone (DIZ) [23]: 22 mm; MIC [24]: 100 µg/mL (≈ 238 µM); diameter of the inhibition zone (DIZ) [25]: 18 mm
8 | COc1ccc(-c2cc(-c3ccc(Nc4cc(=O)oc5ccccc45)cc3)nc(N)n2)cc1 | 12.5 (≈ 28.6 µM) | 12.5 (≈ 28.6 µM) | 50 (≈ 115 µM) | 22 | 23 | 12.5 (≈ 28.6 µM) | 25 (≈ 57.3 µM) | 20 | 23 | 25 (≈ 57.3 µM) | 24 | 50 (≈ 115 µM) | 19 | 12.5 (≈ 28.6 µM) | 98 | 62.5 (≈ 143 µM) | 24 | 21 | 12.5 (≈ 28.6 µM) | 22 | MIC [20]: 25 µg/mL (≈ 57.3 µM); diameter of the inhibition zone (DIZ) [21]: 21 mm; MIC [22]: 25 µg/mL (≈ 57.3 µM); diameter of the inhibition zone (DIZ) [23]: 19 mm; MIC [24]: 12.5 µg/mL (≈ 28.6 µM); diameter of the inhibition zone (DIZ) [25]: 20 mm

From ChEMBL document CHEMBL3045446, “In vitro antimicrobial and antimycobacterial activity of some chalcones and their derivatives” (2013)
